Measurements from patent publication US20040214799A1, “Cancerous metastasis inhibitors containing carbacyclic phosphatidic acid derivatives” (priority 2001, published 2004).
Where “and” joins values, the source holds several entries; their conditions need not be identical. Equal entries are not always repeated.

Assays:
MM1 cells [1] = assay: Measurement of intracellular cAMP in MM1 cells; type: cell-based, rat; details: 25 μM cPA or 10 μM Forskolin, pretreated with 1 mM IBMX
Protocol: After a certain time period, 10% ice-cooled TCA was added to stop the reaction. The centrifuged supernatant was washed 4 times with water-saturated diethylether to remove TCA, and then placed under nitrogen gas flow at 60° C. to remove the solvent completely. cAMP in the resultant sample was measured using a cyclic AMP [^3H] assay system (Amersham).

[2] = test system: Mouse malignant melanoma B16-F0; assay: B16 melanoma hematogenous lung metastasis model; type: in vivo; details: 0.008 mg/body i.v. For Metastatic nodules, Abdominal cavity Adipose tissue: key: −: Absent; +: Present. For Metastatic nodules, Abdominal cavity Adrenal gland: key: −: Absent; +: Present. For Metastatic nodules, Abdominal cavity Diaphragm: key: −: Absent; +: Present. For Metastatic nodules, Abdominal cavity Kidney: key: −: Absent; +: Present. For Metastatic nodules, Abdominal cavity Ovary: key: −: Absent; +: Present. For Metastatic nodules, Abdominal cavity Spleen: key: −: Absent; +: Present. For Metastatic nodules, Thoracic cavity: key: −: Absent; +: Present. For Metastatic nodules, Tissue around glandual clitoris: key: −: Absent; +: Present.
Protocol: cPA-19 and cPA-20 were used as test substances. 0.1 w/v % BSA/PBS which was prepared by dissolving Albumin, Bovine [essentially Fatty Acid Free] (BSA, Lot No. 89H7604, Sigma chemical company) in Ca^2+ and Mg^2+ free PBS (pH 7.2), was used as a medium After preparation, the solution was sterilized by filtration using a filter (0.22 μm, Millipore). Preparation was performed when used. cPA-5 was used as a positive control substance.
A medium was added in a volume required for a test substance or a positive control substance. Dissolution was performed by ultrasonication, thereby preparing a 0.16 mg/mL solution. The 0.16 mg/mL solution containing a test substance was diluted with a medium, thereby preparing 0.08 and 0.02 mg/mL solutions. All mixtures were prepared when used.
Mice were purchased from CHARLES RIVER JAPAN. INC. The line employed herein was C57BL/6NCrj (sexuality: female). The number of animals kept in stock was 60, and the age of these animals when kept in stock was 4 weeks. […] The environmental conditions for the test system were as follows:
Mouse malignant melanoma B16-F0 was used as a tumor cell. The cell was purchased from Dainippon Pharmaceutical Co., Ltd.
Dulbecco's Modified Eagle's Media containing 10% feral bovine serum and kanamycin were used for culture. […] A medium was added to stop the action of trypsin while pipetting, thereby preparing a cell suspension. The suspension was diluted by one-tenth with a medium for culturing, followed by subculturing until it reached a volume sufficient for grafting.
A cell suspension was prepared by the same technique as the subculture method. Specifically, the cells were washed with a Ca^2+ and Mg^2+ free phosphate buffer [PBS(−)], and then harvested. The harvested cells were suspended in a 10 mL of PBS(−), thereby preparing a cell suspension. The number of cells in the cell suspension was measured to obtain the total cell number. 50 μL of the cell suspension, 100 μL of 0.4% trypan blue liquid and 100 μL of PBS(−) were mixed, and then viable count was measured. The survival rate of the cells was calculated from the viable count and total cell number.
Based on the body weight on the day of the administration of the test substance, mice were grouped into 8 test groups according to the stratified continuous randomization method as shown in Table 2 below.
The mixture was administered via the caudal vein. The number of grafted cells was 5×10^5 cells/body. The dose of the test substance was 0.001, 0.004 or 0.008 mg/body, and the dose of the positive control substance was 0.008 mg/body.
On day 14 after the administration of the test substance, blood was collected from the posterior portion of the abdominal vena cava under isoflurane anesthesia. After the mice were sacrificed by blood-letting, the presence or absence of intrapleural and intraperitoneal metastatic nodules was confirmed. Lungs were extracted, and then fixed with a 10% neutral buffered formalin solution. The number of nodules resulting from lung metastasis was measured under a stereoscopic microscope (magnification: 10 times).
After the measurement of the number of nodules resulting from lung metastasis, samples were paraffin-embedded, and then thin sections were prepared. Hematoxylin eosinic-stained samples were prepared from these sections. The number of metastatic lesions in the certain portions of the left lobe and the posterior lobe was measured, and then the lesions were sorted by size. On the basis of the diameter (0.65 mm) of an object lens (×40), metastatic lesions with major diameters of less than 0.65 mm were classified as having a small size, and those with major diameters of between 0.65 mm or more and less than 1.30 mm were classified as having a large size. Furthermore, the degree of invasion of lymphocytes into metastatic lesions was confirmed qualitatively.
The representative value of each test group was denoted as mean±standard deviation (mean±S.D.). Differences in mean values were examined as follows.

MM1 cells [3] = details: Int. J. Cancer 81, 918-922 (1999), cited from earlier work
MM1 cells [4] = details: reported by Mukai et al., Int. J. Cancer 81, 918-922 (1999); cited from earlier work
HT-1080 cells = details: Mukai et al., Int. J. Cancer 81, 918-922 (1999); cited from earlier work
MM1 cells [5] = details: reported by Mukai et al., Int. J. Cancer 81, 918-922 (1999); cited from earlier work; remark: listed apart in the source
[6] = autopsy day 14, individual animals

CCCCCCCCCCCCCCCC(=O)OC[C@@H]1COP(=O)(O)O1 [cPA-5, Pal-cPA, reference compound]
change of intracellular cAMP concentration (in words) (MM1 cells [1]): could not be confirmed | action of decreasing the number of metastatic lesions (in words) [2]: no action of decreasing the number of metastatic lesions was observed | metastasis / number of metastatic nodules in the lungs versus medium group (in words) [2]: a significant decrease was observed in the number of metastatic nodules | invasion of lymphocytes into metastatic lesions observed in cases ([2]; animals with metastatic lesions): 2 out of 5 | Metastatic nodules, Abdominal cavity Adipose tissue [2, 6]: − | Metastatic nodules, Abdominal cavity Adrenal gland [2, 6]: − | Metastatic nodules, Abdominal cavity Diaphragm [2, 6]: − | Metastatic nodules, Abdominal cavity Kidney [2, 6]: − | Metastatic nodules, Abdominal cavity Ovary [2, 6]: − | Metastatic nodules, Abdominal cavity Spleen [2, 6]: + (3×) and − (3×) | Metastatic nodules, Thoracic cavity [2, 6]: − | Metastatic nodules, Tissue around glandual clitoris [2, 6]: − | cases with metastatic nodules in the spleen ([2]; autopsy, 6 mice): 3 case | metastatic nodules in the thoracic cavity ([2]; autopsy, 6 mice): no metastatic nodules were observed | Number of lung tumor nodules, Range (mininum-maximum) ([2]; day 14, N 6): 5-38 | Number of mice having lung tumor nodules ([2]; day 14, N 6): 6 | Number of lung tumor nodules ([2]; day 14, mean ± S.D., N 6): 21 ± 13$ | Number of mice having metastatic lesions ([2]; lung histopathology, N 6): 5 | Findings: Invasion of lymphocytes into melanoma metastatic lesion ([2]; lung histopathology, individual animals): − (3×) and ++ and + | Number of metastatic lesions per section, Large size ([2]; major diameter 0.65 mm ≦ and <1.3 mm, mean ± S.D.): 0.8 ± 0.8 | Number of metastatic lesions per section, Small size ([2]; major diameter <0.65 mm, left lobe and posterior lobe, mean ± S.D.): 1.2 ± 0.8 | Number of metastatic lesions per section, Total ([2]; mean ± S.D.): 2.0 ± 1.3 | invasion suppressing action on LPA-induced invasion (in words) (MM1 cells [3]; reported by Mukai et al.): strongly suppress | suppressed LPA-induced invasion by (MM1 cells [3]; studied by Mukai et al.): approximately 85% | suppression of FBS-induced invasion (in words) (MM1 cells [4]): strongly suppress | suppression of serum/LPA-independent invasion of HT-1080 cells (in words) (HT-1080 cells): suppressed | intracellular cAMP concentration of MM1 cells (in words) (MM1 cells [5]): leads an increase of intracellular cAMP concentration
